# Patent US8993000B2, “Method for inducing differentiation of dental pulp cells into odontoblasts” (National University Corporation Okayama University, priority 2009, dated 2015)
# B1: Norrin: protein capable of directly activating a Wnt signaling pathway (R&D Systems, catalog No. 3014-NR) (protein, UniProt Q00604 25-133, looked up)
# Norrin: KTDSSFIMDSDPRRCMRHHYVDSISHPLYKCSSKMVLLARCEGHCSQASRSEPLVSFSTVLKQPFRSSCHCCRPQTSKLKALRLRCSGGMRLTATYRYILSCHCEECNS
# B2: R-Spondin2: protein capable of directly activating a Wnt signaling pathway (R&D Systems, catalog No. 3266-RS/CF) (protein, UniProt Q6UXX9 22-243, looked up)
# R-spondin-2: QGNRWRRSKRASYVSNPICKGCLSCSKDNGCSRCQQKLFFFLRREGMRQYGECLHSCPSGYYGHRAPDMNRCARCRIENCDSCFSKDFCTKCKVGFYLHRGRCFDECPDGFAPLEETMECVEGCEVGHWSEWGTCSRNNRTCGFKWGLETRTRQIVKKPVKDTILCPTIAESRRCKMTMRHCPGGKRTPKAKEKRNKKKKRKLIERAQEQHSVFLATDRANQ
# Test system: MEDP cells as a pulp-derived cell line
# Assay: Dspp expression by PCR in cultured MEDP pulp-derived cells (induction of differentiation into odontoblasts)
# Format: cell-based
# Details: for expression of Dspp (relative ratio of DSPP to GADPH amplification product): fibronectin-coated vessel; for expression of Dspp in a pulp-derived cell line: same technique as Example 1, addition concentration to be considered
# Procedure: In this example, MEDP cells as a pulp-derived cell line were cultured in a system including NaClO3, and the expression of Dspp in the cultured cells was confirmed. The expression of Dspp was confirmed by PCR.
# The MEDP cells were cultured using a DMEM medium containing 10% v/v fetal bovine serum (FBS). The cells were suspended in the medium so that the number of the cells was 3.7×10^5 cells/ml, and 5 ml of the cell suspension were added to a culture vessel having a diameter of 6 cm and cultured. The culture was carried out using a culture vessel coated with fibronectin (FN) at 37±0.5° C. On day 1 of the culture, […] was added so that the final concentration was 50 mM or 100 mM, and the cells were cultured for an additional 7 days.
# After mRNA had been extracted from the cultured cells using an RNeasy Mini Kit™ (manufactured by QIAGEN), reverse transcription was carried out using a PrimeScript™ Reverse Transcriptase (manufactured by TAKARA) to prepare cDNA, which was used as a sample for PCR. The extraction of mRNA and the preparation of cDNA were carried out in accordance with the manufacturer's instructions. Primers formed of base sequences set forth in SEQ ID NOS: 1 and 2 of the sequence listing were used as primers for amplification of DSPP, and primers formed of base sequences set forth in SEQ ID NOS: 3 and 4 of the sequence listing were used as primers for amplification of GADPH as a control gene. The PCR was carried out using a LightCycler™ (manufactured by Roche). The expression amount of DSPP was confirmed with a relative ratio between an amplification product of DSPP and an amplification product of GADPH.
# A treatment for inducing differentiation was carried out by the same technique as that of Example 1 except that LiCl was used in place of NaClO3 and LiCl was added so that the final concentration was 5 mM or 50 mM on day 1 of the culture. Then, the expression of Dspp was confirmed.
# A treatment for inducing differentiation was carried out by the same technique as that of Example 1 except that NaClO4 was used in place of NaClO3. Then, the expression of Dspp was confirmed.
# A treatment for inducing differentiation is carried out by the same technique as that of Example 1 except that Norrin (R&D Systems, Inc.: catalog No.: 3014-NR) is used in place of NaClO3. Then, the expression of Dspp is confirmed. The addition concentration of Norrin is to be considered.
# A treatment for inducing differentiation is carried out by the same technique as that of Example 1 except that R-Spondin2 (R&D Systems, Inc.: catalog No.: 3266-RS/CF) is used in place of NaClO3. Then, the expression of Dspp is confirmed. The addition concentration of R-Spondin2 is to be considered.
# [1] = 50 mM or 100 mM added on day 1, cultured additional 7 days
molecule,measurement,setting,value
"[Cl-].[Li+] [LiCl, lithium chloride]",expression of Dspp (relative ratio of DSPP to GADPH amplification product),"5 mM or 50 mM added on day 1, cultured additional 7 days",significantly enhanced
"[Na+].[O-][Cl+2]([O-])[O-] [NaClO3, sodium chlorate]",expression of Dspp (relative ratio of DSPP to GADPH amplification product),[1],significantly enhanced
[O-][Cl+3]([O-])([O-])O [sodium perchlorate],expression of Dspp (relative ratio of DSPP to GADPH amplification product),[1],significantly enhanced
B1,expression of Dspp in a pulp-derived cell line,,significantly enhances
B2,expression of Dspp in a pulp-derived cell line,,significantly enhances
